Laboratory results reported in US9790178B2, “Pyrrolidinyl urea, thiourea, guanidine and cyanoguanidine compounds as TrkA kinase inhibitors” (Array BioPharma Inc., priority 2012, dated 2017).

Experiments:
Assay in all cases: KinaseProfiler off-target kinase profiling
Format in all cases: biochemical
Details in all cases: 10 μM, ATP near Km
[1] = molecular target: T1, PAK3 (Homo sapiens, UniProt O75914)
T1 construct: purchased Millipore, Inc. (KinaseProfiler service)
Procedure: (§1) A representative compound of the invention (Example 20) was tested for off-target kinase activity at a concentration of 10 μM by Millipore, Inc. in their KinaseProfiler™ service against all the kinases available in their full kinase panel. The compound was run in duplicate at a concentration of ATP near the Km for each individual kinase according to Millipore's specifications. The results are shown in Table B. Data are reported as percent of control (POC) and are the average of the two replicates.

[2] = molecular target: T2, GRK6 (Homo sapiens, UniProt P43250)
T2 construct: purchased Millipore, Inc. (KinaseProfiler service)
Procedure: as §1

[3] = molecular target: T3, BrSK2 (Homo sapiens, UniProt Q8IWQ3)
T3 construct: purchased Millipore, Inc. (KinaseProfiler service)
Procedure: as §1

[4] = molecular target: T4, MuSK (Homo sapiens, UniProt O15146)
T4 construct: purchased Millipore, Inc. (KinaseProfiler service)
Procedure: as §1

[5] = molecular target: T5, ERK1 (Homo sapiens, UniProt P27361)
T5 construct: purchased Millipore, Inc. (KinaseProfiler service)
Procedure: as §1

[6] = molecular target: T6, PKCmu (Homo sapiens, UniProt Q15139)
T6 construct: purchased Millipore (KinaseProfiler service)
Procedure: as §1

[7] = molecular target: T7, ARK5 (Homo sapiens, UniProt O60285)
T7 construct: purchased Millipore, Inc. (KinaseProfiler service)
Procedure: as §1

[8] = molecular target: T8, SIK (Homo sapiens, UniProt P57059)
T8 construct: purchased Millipore, Inc. (KinaseProfiler service)
Procedure: as §1

[9] = molecular target: T9, PAK4 (Homo sapiens, UniProt O96013)
T9 construct: purchased Millipore, Inc. (KinaseProfiler service)
Procedure: as §1

[10] = molecular target: T10, SRPK1 (Homo sapiens, UniProt Q96SB4)
T10 construct: purchased Millipore, Inc. (KinaseProfiler service)
Procedure: as §1

[11] = molecular target: T11, CAMK2b (Homo sapiens, UniProt Q13554)
T11 construct: purchased Millipore, Inc. (KinaseProfiler service)
Procedure: as §1

[12] = molecular target: T12, p38beta (Homo sapiens, UniProt Q15759)
T12 construct: purchased Millipore, Inc. (KinaseProfiler service)
Procedure: as §1

[13] = molecular target: T13, PRKG1beta (Homo sapiens, UniProt Q13976)
T13 construct: purchased Millipore (KinaseProfiler service)
Procedure: as §1

[14] = molecular target: T14, FGFR4 (Homo sapiens, UniProt P22455)
T14 construct: purchased Millipore, Inc. (KinaseProfiler service)
Procedure: as §1

[15] = molecular target: T15, PRK2 (Homo sapiens, UniProt Q16513)
T15 construct: purchased Millipore (KinaseProfiler service)
Procedure: as §1

[16] = molecular target: T16, CAMK2d (Homo sapiens, UniProt Q13557)
T16 construct: purchased Millipore, Inc. (KinaseProfiler service)
Procedure: as §1

[17] = molecular target: T17, CK1gamma2 (Homo sapiens, UniProt P78368)
T17 construct: purchased Millipore, Inc. (KinaseProfiler service)
Procedure: as §1

[18] = molecular target: T18, CDK5/p25 (Homo sapiens, UniProt Q00535)
T18 construct: purchased Millipore, Inc. (KinaseProfiler service)
Procedure: as §1

[19] = molecular target: T19, STK33 (Homo sapiens, UniProt Q9BYT3)
T19 construct: purchased Millipore, Inc. (KinaseProfiler service)
Procedure: as §1

[20] = molecular target: T20, TAO2 (Homo sapiens, UniProt Q9UL54)
T20 construct: purchased Millipore, Inc. (KinaseProfiler service)
Procedure: as §1

[21] = molecular target: T21, NEK2 (Homo sapiens, UniProt P51955)
T21 construct: purchased Millipore, Inc. (KinaseProfiler service)
Procedure: as §1

[22] = molecular target: T22, MST1 (Homo sapiens, UniProt Q13043)
T22 construct: purchased Millipore, Inc. (KinaseProfiler service)
Procedure: as §1

[23] = molecular target: T23, VRK2 (Homo sapiens, UniProt Q86Y07)
T23 construct: purchased Millipore, Inc. (KinaseProfiler service)
Procedure: as §1

[24] = molecular target: T24, ULK2 (Homo sapiens, UniProt Q8IYT8)
T24 construct: purchased Millipore, Inc. (KinaseProfiler service)
Procedure: as §1

[25] = molecular target: T25, GSK3beta (Homo sapiens, UniProt P49841)
T25 construct: purchased Millipore, Inc. (KinaseProfiler service)
Procedure: as §1

[26] = molecular target: T26, IR Activated (Homo sapiens, UniProt P06213)
T26 construct: purchased Millipore, Inc. (KinaseProfiler service)
Procedure: as §1

[27] = molecular target: T27, GRK7 (Homo sapiens, UniProt Q8WTQ7)
T27 construct: purchased Millipore, Inc. (KinaseProfiler service)
Procedure: as §1

[28] = molecular target: T28, p38delta (Homo sapiens, UniProt O15264)
T28 construct: purchased Millipore, Inc. (KinaseProfiler service)
Procedure: as §1

[29] = molecular target: T29, CK1gamma3 (Homo sapiens, UniProt Q9Y6M4)
T29 construct: purchased Millipore, Inc. (KinaseProfiler service)
Procedure: as §1

[30] = molecular target: T30, MST2 (Homo sapiens, UniProt Q13188)
T30 construct: purchased Millipore, Inc. (KinaseProfiler service)
Procedure: as §1

[31] = molecular target: T31, MINK (Homo sapiens, UniProt Q8N4C8)
T31 construct: purchased Millipore, Inc. (KinaseProfiler service)
Procedure: as §1

[32] = molecular target: T32, MELK (Homo sapiens, UniProt Q14680)
T32 construct: purchased Millipore, Inc. (KinaseProfiler service)
Procedure: as §1

[33] = molecular target: T33, EphA1 (Homo sapiens, UniProt P21709)
T33 construct: purchased Millipore, Inc. (KinaseProfiler service)
Procedure: as §1

[34] = molecular target: T34, CAMK2g (Homo sapiens, UniProt Q13555)
T34 construct: purchased Millipore, Inc. (KinaseProfiler service)
Procedure: as §1

[35] = molecular target: T35, NEK7 (Homo sapiens, UniProt Q8TDX7)
T35 construct: purchased Millipore, Inc. (KinaseProfiler service)
Procedure: as §1

[36] = molecular target: T36, MSSK1 (Homo sapiens, UniProt Q9UPE1)
T36 construct: purchased Millipore, Inc. (KinaseProfiler service)
Procedure: as §1

[37] = molecular target: T37, FGFR2 (Homo sapiens, UniProt P21802)
T37 construct: purchased Millipore, Inc. (KinaseProfiler service)
Procedure: as §1

[38] = molecular target: T38, IGF-1R Activated (Homo sapiens, UniProt P08069)
T38 construct: purchased Millipore, Inc. (KinaseProfiler service)
Procedure: as §1

[39] = molecular target: T39, BLK_m (Mus musculus, UniProt P16277)
T39 construct: purchased Millipore, Inc. (KinaseProfiler service)
Procedure: as §1

[40] = molecular target: T40, Txk (Homo sapiens, UniProt P42681)
T40 construct: purchased Millipore, Inc. (KinaseProfiler service)
Procedure: as §1

[41] = molecular target: T41, BTK (Homo sapiens, UniProt Q06187)
T41 construct: purchased Millipore, Inc. (KinaseProfiler service)
Procedure: as §1

T10 sequence (Q96SB4 whole entry): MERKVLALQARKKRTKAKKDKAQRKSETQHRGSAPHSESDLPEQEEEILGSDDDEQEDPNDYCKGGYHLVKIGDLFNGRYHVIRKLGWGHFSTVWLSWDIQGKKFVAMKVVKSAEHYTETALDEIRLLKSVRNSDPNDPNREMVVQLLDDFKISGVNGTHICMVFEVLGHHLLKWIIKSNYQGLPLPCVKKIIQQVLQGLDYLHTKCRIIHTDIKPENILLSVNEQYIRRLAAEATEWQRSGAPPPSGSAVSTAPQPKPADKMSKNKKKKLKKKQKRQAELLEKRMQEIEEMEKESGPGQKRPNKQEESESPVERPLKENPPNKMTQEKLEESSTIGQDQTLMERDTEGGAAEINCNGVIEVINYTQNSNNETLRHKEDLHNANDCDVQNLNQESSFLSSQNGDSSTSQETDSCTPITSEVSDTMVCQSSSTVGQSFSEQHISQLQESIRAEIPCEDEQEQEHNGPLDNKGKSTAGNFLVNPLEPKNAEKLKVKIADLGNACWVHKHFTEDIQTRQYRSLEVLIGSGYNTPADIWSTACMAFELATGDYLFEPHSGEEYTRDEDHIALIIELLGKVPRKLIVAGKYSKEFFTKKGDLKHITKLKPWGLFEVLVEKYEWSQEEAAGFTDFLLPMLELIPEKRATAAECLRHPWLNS
T32 sequence (Q14680 whole entry): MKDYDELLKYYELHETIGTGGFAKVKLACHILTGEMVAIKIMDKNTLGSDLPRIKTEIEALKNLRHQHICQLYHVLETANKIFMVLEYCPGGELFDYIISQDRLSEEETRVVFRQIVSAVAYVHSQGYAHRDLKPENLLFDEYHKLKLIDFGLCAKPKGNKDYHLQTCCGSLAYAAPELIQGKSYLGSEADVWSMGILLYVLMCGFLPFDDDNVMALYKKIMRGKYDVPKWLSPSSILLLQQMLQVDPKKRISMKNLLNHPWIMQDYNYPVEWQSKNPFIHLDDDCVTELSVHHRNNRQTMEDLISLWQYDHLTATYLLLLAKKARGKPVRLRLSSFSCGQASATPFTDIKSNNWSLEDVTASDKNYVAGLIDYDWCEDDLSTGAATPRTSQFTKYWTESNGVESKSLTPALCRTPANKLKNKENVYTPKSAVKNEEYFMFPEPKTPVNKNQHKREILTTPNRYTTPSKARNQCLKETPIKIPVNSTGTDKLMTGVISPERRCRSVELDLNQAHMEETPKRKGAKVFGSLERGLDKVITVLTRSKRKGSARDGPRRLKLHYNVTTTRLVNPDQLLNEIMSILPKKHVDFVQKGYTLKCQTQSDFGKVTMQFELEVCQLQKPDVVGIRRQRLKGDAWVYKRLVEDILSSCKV
T38 sequence (P08069 959-1367 limits assumed): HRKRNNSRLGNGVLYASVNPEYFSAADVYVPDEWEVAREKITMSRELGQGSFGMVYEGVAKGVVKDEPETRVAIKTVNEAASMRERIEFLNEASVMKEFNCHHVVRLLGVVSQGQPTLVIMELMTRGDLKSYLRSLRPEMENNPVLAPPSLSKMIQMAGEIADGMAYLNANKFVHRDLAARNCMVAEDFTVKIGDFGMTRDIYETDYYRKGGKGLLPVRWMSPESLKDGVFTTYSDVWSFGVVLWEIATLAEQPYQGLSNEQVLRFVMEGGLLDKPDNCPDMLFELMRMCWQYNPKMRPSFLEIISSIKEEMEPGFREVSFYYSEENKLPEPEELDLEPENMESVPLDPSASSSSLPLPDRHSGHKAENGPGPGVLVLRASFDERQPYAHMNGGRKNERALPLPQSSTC
T20 sequence (Q9UL54 whole entry): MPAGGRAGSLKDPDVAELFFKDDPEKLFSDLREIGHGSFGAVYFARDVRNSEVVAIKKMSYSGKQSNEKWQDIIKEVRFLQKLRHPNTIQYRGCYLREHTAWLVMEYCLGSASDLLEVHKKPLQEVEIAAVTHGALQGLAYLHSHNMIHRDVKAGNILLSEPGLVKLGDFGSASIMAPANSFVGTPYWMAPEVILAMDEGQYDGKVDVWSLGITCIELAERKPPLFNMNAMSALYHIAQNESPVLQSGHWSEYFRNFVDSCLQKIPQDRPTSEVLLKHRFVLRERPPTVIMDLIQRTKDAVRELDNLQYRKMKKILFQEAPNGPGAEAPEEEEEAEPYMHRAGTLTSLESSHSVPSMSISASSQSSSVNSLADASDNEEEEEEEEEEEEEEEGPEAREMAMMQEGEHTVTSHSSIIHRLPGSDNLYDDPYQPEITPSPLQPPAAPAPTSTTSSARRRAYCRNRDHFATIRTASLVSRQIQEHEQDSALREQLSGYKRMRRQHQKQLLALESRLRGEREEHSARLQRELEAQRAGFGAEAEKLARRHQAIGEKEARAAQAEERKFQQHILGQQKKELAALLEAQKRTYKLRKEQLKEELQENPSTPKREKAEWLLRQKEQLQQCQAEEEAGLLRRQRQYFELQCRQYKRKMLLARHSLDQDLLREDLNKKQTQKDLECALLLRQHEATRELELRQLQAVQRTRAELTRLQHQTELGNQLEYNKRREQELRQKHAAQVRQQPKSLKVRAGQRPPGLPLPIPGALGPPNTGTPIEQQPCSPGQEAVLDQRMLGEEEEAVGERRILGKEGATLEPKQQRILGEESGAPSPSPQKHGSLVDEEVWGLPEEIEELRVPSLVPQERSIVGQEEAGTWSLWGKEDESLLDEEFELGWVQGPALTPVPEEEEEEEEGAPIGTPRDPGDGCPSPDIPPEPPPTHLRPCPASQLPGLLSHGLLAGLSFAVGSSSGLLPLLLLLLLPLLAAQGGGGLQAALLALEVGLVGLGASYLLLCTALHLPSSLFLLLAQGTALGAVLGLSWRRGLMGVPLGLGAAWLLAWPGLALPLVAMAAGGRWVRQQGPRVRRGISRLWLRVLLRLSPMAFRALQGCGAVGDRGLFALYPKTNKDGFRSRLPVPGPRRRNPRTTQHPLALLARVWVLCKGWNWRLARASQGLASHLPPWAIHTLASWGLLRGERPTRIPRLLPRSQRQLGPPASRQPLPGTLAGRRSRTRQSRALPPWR
T24 sequence (Q8IYT8 whole entry): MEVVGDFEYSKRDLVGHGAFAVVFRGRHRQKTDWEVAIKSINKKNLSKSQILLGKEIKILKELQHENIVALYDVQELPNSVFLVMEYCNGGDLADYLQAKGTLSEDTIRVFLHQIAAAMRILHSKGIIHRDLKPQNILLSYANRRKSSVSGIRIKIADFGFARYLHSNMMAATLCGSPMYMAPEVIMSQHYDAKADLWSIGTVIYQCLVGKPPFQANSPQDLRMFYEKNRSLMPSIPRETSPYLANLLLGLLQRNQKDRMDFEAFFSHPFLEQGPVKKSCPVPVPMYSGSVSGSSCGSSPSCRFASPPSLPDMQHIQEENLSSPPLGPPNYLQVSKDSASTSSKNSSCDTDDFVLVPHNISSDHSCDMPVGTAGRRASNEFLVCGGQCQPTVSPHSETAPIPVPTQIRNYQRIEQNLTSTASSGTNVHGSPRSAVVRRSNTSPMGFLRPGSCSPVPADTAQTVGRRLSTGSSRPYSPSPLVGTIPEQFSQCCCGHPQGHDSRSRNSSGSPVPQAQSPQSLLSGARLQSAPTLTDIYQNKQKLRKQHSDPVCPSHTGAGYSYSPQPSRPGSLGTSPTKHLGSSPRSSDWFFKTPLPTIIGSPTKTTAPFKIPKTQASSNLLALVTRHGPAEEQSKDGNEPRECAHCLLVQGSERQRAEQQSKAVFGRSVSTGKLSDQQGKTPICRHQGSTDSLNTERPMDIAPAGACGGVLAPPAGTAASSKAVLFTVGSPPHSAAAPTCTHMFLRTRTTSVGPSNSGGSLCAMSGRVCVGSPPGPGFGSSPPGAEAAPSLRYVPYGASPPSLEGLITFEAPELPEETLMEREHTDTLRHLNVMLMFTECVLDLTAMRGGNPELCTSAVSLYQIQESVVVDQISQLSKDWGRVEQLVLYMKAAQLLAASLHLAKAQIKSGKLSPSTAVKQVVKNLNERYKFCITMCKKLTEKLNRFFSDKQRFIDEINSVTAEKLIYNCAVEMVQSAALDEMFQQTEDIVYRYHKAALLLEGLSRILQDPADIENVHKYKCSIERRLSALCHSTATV
T28 sequence (O15264 whole entry): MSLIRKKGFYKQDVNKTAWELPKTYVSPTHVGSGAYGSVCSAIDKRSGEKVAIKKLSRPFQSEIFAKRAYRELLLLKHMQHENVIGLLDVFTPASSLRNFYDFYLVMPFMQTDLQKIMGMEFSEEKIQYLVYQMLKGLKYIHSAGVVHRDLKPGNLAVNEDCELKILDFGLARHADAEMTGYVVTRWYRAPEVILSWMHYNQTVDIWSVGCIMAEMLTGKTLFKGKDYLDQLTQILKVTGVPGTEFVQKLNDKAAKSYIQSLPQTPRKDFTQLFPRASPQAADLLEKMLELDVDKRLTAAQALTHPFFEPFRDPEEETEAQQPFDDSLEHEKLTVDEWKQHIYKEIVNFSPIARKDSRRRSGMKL
T26 sequence (P06213 1005-1310 limits assumed): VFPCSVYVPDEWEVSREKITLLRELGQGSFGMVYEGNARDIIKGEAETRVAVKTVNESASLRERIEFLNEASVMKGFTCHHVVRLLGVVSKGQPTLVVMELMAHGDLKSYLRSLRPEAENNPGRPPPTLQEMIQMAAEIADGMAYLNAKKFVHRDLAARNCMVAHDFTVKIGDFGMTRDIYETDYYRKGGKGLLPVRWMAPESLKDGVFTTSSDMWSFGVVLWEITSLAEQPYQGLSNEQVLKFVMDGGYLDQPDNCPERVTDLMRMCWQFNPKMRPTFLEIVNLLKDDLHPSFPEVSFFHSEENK
T35 sequence (Q8TDX7 whole entry): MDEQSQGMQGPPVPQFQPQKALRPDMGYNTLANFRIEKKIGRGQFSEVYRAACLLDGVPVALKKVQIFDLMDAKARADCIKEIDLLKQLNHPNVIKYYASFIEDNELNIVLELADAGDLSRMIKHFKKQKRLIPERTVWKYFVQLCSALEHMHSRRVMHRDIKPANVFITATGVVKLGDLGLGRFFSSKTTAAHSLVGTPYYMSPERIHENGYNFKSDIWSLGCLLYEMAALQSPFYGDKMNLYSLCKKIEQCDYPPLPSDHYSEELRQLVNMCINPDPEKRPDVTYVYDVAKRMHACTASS

## COCCN1C[C@@H](NC(=O)Nc2c(-c3ccccc3)nc3c(C)nccn23)[C@H](c2ccc(F)c(F)c2)C1 [Example 20, 1-((3S,4R)-4-(3,4-difluorophenyl)-1-(2-methoxyethyl)pyrrolidin-3-yl)-3-(8-methyl-2-phenylimidazo[1,2-a]pyrazin-3-yl)urea]
[1]
  Avg. POC: 219.5 POC
[2]
  Avg. POC: 110 POC
[3]
  Avg. POC: 116 POC
[4]
  Avg. POC: 108.5 POC
[5]
  Avg. POC: 115 POC
[6]
  Avg. POC: 100.5 POC
[7]
  Avg. POC: 104 POC
[8]
  Avg. POC: 97.5 POC
[9]
  Avg. POC: 97.5 POC
[10]
  Avg. POC: 113.5 POC
[11]
  Avg. POC: 102 POC
[12]
  Avg. POC: 98.5 POC
[13]
  Avg. POC: 124 POC
[14]
  Avg. POC: 90 POC
[15]
  Avg. POC: 104 POC
[16]
  Avg. POC: 102 POC
[17]
  Avg. POC: 110 POC
[18]
  Avg. POC: 111 POC
[19]
  Avg. POC: 109.5 POC
[20]
  Avg. POC: 104.5 POC
[21]
  Avg. POC: 91 POC
[22]
  Avg. POC: 89.5 POC
[23]
  Avg. POC: 117.5 POC
[24]
  Avg. POC: 109 POC
[25]
  Avg. POC: 129 POC
[26]
  Avg. POC: 108 POC
[27]
  Avg. POC: 96.5 POC
[28]
  Avg. POC: 105 POC
[29]
  Avg. POC: 112 POC
[30]
  Avg. POC: 107.5 POC
[31]
  Avg. POC: 99 POC
[32]
  Avg. POC: 97.5 POC
[33]
  Avg. POC: 99 POC
[34]
  Avg. POC: 113 POC
[35]
  Avg. POC: 105.5 POC
[36]
  Avg. POC: 108.5 POC
[37]
  Avg. POC: 106 POC
[38]
  Avg. POC: 100 POC
[39]
  Avg. POC: 113 POC
[40]
  Avg. POC: 130 POC
[41]
  Avg. POC: 112.5 POC
